Reference: the supplement of paper PMC4932681

Key:
BT-474 [1] = test: relative IC50 (midpoint of fitted logistic curve, plateau may be below 50% inhibition; CellTiter-Glo viability); higher = less potent; conditions: 72 h
Outline: (§1)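 After seeding into 384-well plates with library drugs at five concentrations spanning a 10 000-fold range, breast cancer cell lines and their resistant derivatives were incubated 72 h at 37 °C. Resistant lines received medium with 1 μM of the selecting drug. CellTiter-Glo signal was read on a PHERAstar and scaled to vehicle-only and positive controls. Drug sensitivity score, relative IC50 (the curve midpoint) and top-dose inhibition came from logistic fits run in the Breeze pipeline.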

MCF-7 [2] = test: as above; conditions: 72 h
Outline: as §1

T-47D Tam2 [3] = test: as above; conditions: 4-OH-tamoxifen in medium 1 µM; 72 h
Outline: as §1

T-47D [4] = test: as above; conditions: 72 h
Outline: as §1

ZR-75-1 Tam2 [5] = test: as above; conditions: 4-OH-tamoxifen in medium 1 µM; 72 h
Outline: as §1

MCF-7 Tam1 [6] = test: as above; conditions: 4-OH-tamoxifen in medium 1 µM; 72 h
Outline: as §1

ZR-75-1 Tam1 [7] = test: as above; conditions: 4-OH-tamoxifen in medium 1 µM; 72 h
Outline: as §1

BT-474 Tam2 [8] = test: as above; conditions: 4-OH-tamoxifen in medium 1 µM; 72 h
Outline: as §1

ZR-75-1 [9] = test: as above; conditions: 72 h
Outline: as §1

BT-474 [10] = test: drug sensitivity score (DSS) (DSS (dimensionless)); higher = more sensitive; extreme values may be limits of the assay; conditions: 72 h
Outline: as §1

MCF-7 [11] = test: as above; conditions: 72 h
Outline: as §1

T-47D Tam2 [12] = test: as above; conditions: 4-OH-tamoxifen in medium 1 µM; 72 h
Outline: as §1

T-47D Tam1 = test: as above; conditions: 4-OH-tamoxifen in medium 1 µM; 72 h
Outline: as §1

T-47D [13] = test: as above; conditions: 72 h
Outline: as §1

ZR-75-1 Tam2 [14] = test: as above; conditions: 4-OH-tamoxifen in medium 1 µM; 72 h
Outline: as §1

MCF-7 Tam1 [15] = test: as above; conditions: 4-OH-tamoxifen in medium 1 µM; 72 h
Outline: as §1

ZR-75-1 Tam1 [16] = test: as above; conditions: 4-OH-tamoxifen in medium 1 µM; 72 h
Outline: as §1

BT-474 Tam2 [17] = test: as above; conditions: 4-OH-tamoxifen in medium 1 µM; 72 h
Outline: as §1

ZR-75-1 [18] = test: as above; conditions: 72 h
Outline: as §1

BT-474 Tam1 [19] = test: as above; conditions: 4-OH-tamoxifen in medium 1 µM; 72 h
Outline: as §1

BT-474 Tam1 [20] = test: relative IC50 (midpoint of fitted logistic curve, plateau may be below 50% inhibition; CellTiter-Glo viability); higher = less potent; conditions: 4-OH-tamoxifen in medium 1 µM; 72 h
Outline: as §1

| Compound | relative IC50 (BT-474 [1]; 4-OH-tamoxifen in medium 0 µM) [µM] | relative IC50 (BT-474 [1]; 4-OH-tamoxifen in medium 1 µM) [µM] | relative IC50 (MCF-7 [2]; 4-OH-tamoxifen in medium 0 µM) [µM] | relative IC50 (MCF-7 [2]; 4-OH-tamoxifen in medium 1 µM) [µM] | relative IC50 (T-47D Tam2 [3]) [µM] | relative IC50 (T-47D [4]; 4-OH-tamoxifen in medium 0 µM) [µM] | relative IC50 (MCF-7 Tam1 [6]) [µM] | relative IC50 (BT-474 Tam2 [8]) [µM] | relative IC50 (T-47D [4]; 4-OH-tamoxifen in medium 1 µM) [µM] | relative IC50 (BT-474 Tam1 [20]) [µM] | relative IC50 (ZR-75-1 Tam2 [5]) [µM] | relative IC50 (ZR-75-1 Tam1 [7]) [µM] | relative IC50 (ZR-75-1 [9]; 4-OH-tamoxifen in medium 0 µM) [µM] | relative IC50 (ZR-75-1 [9]; 4-OH-tamoxifen in medium 1 µM) [µM] | drug sensitivity score (BT-474 [10]; 4-OH-tamoxifen in medium 0 µM) | drug sensitivity score (BT-474 [10]; 4-OH-tamoxifen in medium 1 µM) | drug sensitivity score (MCF-7 [11]; 4-OH-tamoxifen in medium 0 µM) | drug sensitivity score (MCF-7 [11]; 4-OH-tamoxifen in medium 1 µM) | drug sensitivity score (T-47D Tam2 [12]) | drug sensitivity score (T-47D Tam1) | drug sensitivity score (T-47D [13]; 4-OH-tamoxifen in medium 0 µM) | drug sensitivity score (T-47D [13]; 4-OH-tamoxifen in medium 1 µM) | drug sensitivity score (ZR-75-1 Tam2 [14]) | drug sensitivity score (MCF-7 Tam1 [15]) | drug sensitivity score (ZR-75-1 Tam1 [16]) | drug sensitivity score (BT-474 Tam2 [17]) | drug sensitivity score (ZR-75-1 [18]; 4-OH-tamoxifen in medium 0 µM) | drug sensitivity score (ZR-75-1 [18]; 4-OH-tamoxifen in medium 1 µM) | drug sensitivity score (BT-474 Tam1 [19]) |
| --- | --- | --- | --- | --- | --- | --- | --- | --- | --- | --- | --- | --- | --- | --- | --- | --- | --- | --- | --- | --- | --- | --- | --- | --- | --- | --- | --- | --- | --- |
| CCN(CC)CCNC(=O)c1c(C)[nH]c(/C=C2\C(=O)Nc3ccc(F)cc32)c1C | > 1 | 0.276 | > 1 | > 1 | > 1 | > 1 | > 1 | > 1 | – | – | > 1 | > 1 | > 1 | > 1 | 0 | 1.81 | 0 | 0 | 0 | 0.199 | 0 | 0.383 | 0 | 0 | 0 | 0 | 0 | 0 | 0.118 |
| Cc1c(N)nc([C@H](CC(N)=O)NC[C@H](N)C(N)=O)nc1C(=O)N[C@H](C(=O)N[C@H](C)[C@@H](O)[C@H](C)C(=O)N[C@H](C(=O)NCCc1nc(-c2nc(C(=O)NCCC[S+](C)C)cs2)cs1)[C@@H](C)O)[C@@H](OC1OC(CO)C(O)C(O)C1OC1OC(CO)C(O)C(OC(N)=O)C1O)c1cnc[nH]1 (stereo partly specified) [Bleomycin] | > 10 | > 10 | – | – | > 10 | – | > 10 | > 10 | > 10 | > 10 | > 10 | – | – | > 10 | 0 | 0 | 0.0343 | 0.0155 | 0 | 1.38 | 0.51 | 0 | 0 | 0 | 0.117 | 0 | 0.615 | 0 | 0 |
| CC(=O)O[C@@]12CO[C@@H]1C[C@H](O)[C@@]1(C)C(=O)[C@H](O)C3=C(C)[C@@H](OC(=O)[C@H](O)[C@@H](NC(=O)OC(C)(C)C)c4ccccc4)C[C@@](O)([C@@H](OC(=O)c4ccccc4)[C@H]21)C3(C)C [Docetaxel] | 0.00376 | 0.00383 | 0.00123 | – | 0.00421 | 0.00176 | > 1 | – | > 1 | 0.00672 | > 1 | > 1 | – | > 1 | 14 | 17.7 | 7.56 | 5.79 | 10.8 | 8.38 | 15.4 | 0 | 0 | 0 | 0 | 3.99 | 0.389 | 0 | 10 |
| CNC(=O)c1ccc(N2C(=S)N(c3ccc(C#N)c(C(F)(F)F)c3)C(=O)C2(C)C)cc1F [Enzalutamide (MDV 3100)] | > 10 | > 10 | > 10 | – | > 10 | > 10 | > 10 | – | > 10 | – | > 10 | > 10 | > 10 | > 10 | 0 | 0 | 0 | 0.74 | 0 | 0 | 0 | 0 | 0 | 0 | 0 | 0.634 | 0 | 0 | 0 |
| C/C(=C\c1csc(C)n1)[C@@H]1C[C@@H]2O[C@]2(C)CCC[C@H](C)[C@H](O)[C@@H](C)C(=O)C(C)(C)[C@@H](O)CC(=O)N1 [Ixabepilone] | > 1 | 0.436 | – | – | 0.229 | 0.415 | > 1 | > 1 | – | > 1 | > 1 | > 1 | > 1 | > 1 | 0 | 1.39 | 0.882 | 1 | 2.1 | 0.349 | 1.7 | 0.538 | 0 | 0 | 0 | 0 | 0 | 0 | 0 |

Further lines, with some results ahead:

| relative IC50 (BT-474 [1]; 4-OH-tamoxifen in medium 0 µM) [µM] | relative IC50 (BT-474 [1]; 4-OH-tamoxifen in medium 1 µM) [µM] | relative IC50 (MCF-7 [2]; 4-OH-tamoxifen in medium 0 µM) [µM] | relative IC50 (MCF-7 [2]; 4-OH-tamoxifen in medium 1 µM) [µM] | relative IC50 (T-47D Tam2 [3]) [µM] | relative IC50 (T-47D [4]; 4-OH-tamoxifen in medium 0 µM) [µM] | relative IC50 (MCF-7 Tam1 [6]) [µM] | relative IC50 (BT-474 Tam2 [8]) [µM] | relative IC50 (T-47D [4]; 4-OH-tamoxifen in medium 1 µM) [µM] | relative IC50 (BT-474 Tam1 [20]) [µM] | Compound | relative IC50 (ZR-75-1 Tam2 [5]) [µM] | relative IC50 (ZR-75-1 Tam1 [7]) [µM] | relative IC50 (ZR-75-1 [9]; 4-OH-tamoxifen in medium 0 µM) [µM] | relative IC50 (ZR-75-1 [9]; 4-OH-tamoxifen in medium 1 µM) [µM] | drug sensitivity score (BT-474 [10]; 4-OH-tamoxifen in medium 0 µM) | drug sensitivity score (BT-474 [10]; 4-OH-tamoxifen in medium 1 µM) | drug sensitivity score (MCF-7 [11]; 4-OH-tamoxifen in medium 0 µM) | drug sensitivity score (MCF-7 [11]; 4-OH-tamoxifen in medium 1 µM) | drug sensitivity score (T-47D Tam2 [12]) | drug sensitivity score (T-47D Tam1) | drug sensitivity score (T-47D [13]; 4-OH-tamoxifen in medium 0 µM) | drug sensitivity score (T-47D [13]; 4-OH-tamoxifen in medium 1 µM) | drug sensitivity score (ZR-75-1 Tam2 [14]) | drug sensitivity score (MCF-7 Tam1 [15]) | drug sensitivity score (ZR-75-1 Tam1 [16]) | drug sensitivity score (BT-474 Tam2 [17]) | drug sensitivity score (ZR-75-1 [18]; 4-OH-tamoxifen in medium 0 µM) | drug sensitivity score (ZR-75-1 [18]; 4-OH-tamoxifen in medium 1 µM) | drug sensitivity score (BT-474 Tam1 [19]) |
| --- | --- | --- | --- | --- | --- | --- | --- | --- | --- | --- | --- | --- | --- | --- | --- | --- | --- | --- | --- | --- | --- | --- | --- | --- | --- | --- | --- | --- | --- |
| > 10 | – | – | – | 1.71 | – | > 10 | > 10 | – | > 10 | CC[C@H](Nc1ncnc2[nH]cnc12)c1nc2cccc(F)c2c(=O)n1-c1ccccc1 [CAL-101] | 1.33 | 1.14 | 1.21 | 1.21 | 0 | 0.147 | 2.04 | 0.584 | 2.66 | 0.811 | 0.0938 | 0.0607 | 5.82 | 0 | 4.88 | 0 | 4.36 | 4.39 | 0 |
| > 1 | > 1 | > 1 | > 1 | > 1 | > 1 | > 1 | > 1 | > 1 | – | CCN1CCN(c2ccc(Nc3cc(N(C)C(=O)Nc4c(Cl)c(OC)cc(OC)c4Cl)ncn3)cc2)CC1 [NVP-BGJ398] | > 1 | > 1 | > 1 | > 1 | 0 | 0 | 0 | 0 | 0 | 1.07 | 0 | 0 | 0 | 0 | 0 | 0 | 0 | 0 | 6.97 |
